Results on eleven cell lines are retold here after the supplement of paper PMC10307832.

Common to all, as to experiment: relative viability (nuclei count vs DMSO), 5 days (fraction); higher = more cells survive
Compound in the experiment “Shikonin + OSI-027”: CC(C)=CC[C@@H](O)C1=CC(=O)c2c(O)ccc(O)c2C1=O [Shikonin] + COc1cccc2cc(-c3nc([C@H]4CC[C@H](C(=O)O)CC4)n4ncnc(N)c34)[nH]c12 [OSI-027] (partner 0.5 µM)
In a few lines:
(§1)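 Lung cancer cell lines in 1536-well plates were dosed by pin tool the day after seeding, either with one drug alone or with a fixed anchor-drug dose plus five library-drug doses (not always all listed) in √10 steps. After 5 days, cells were fixed and their nuclei stained in one step (final 0.05% Triton X-100, 1% formaldehyde, 1 ug/ml Hoechst), then counted on 4× images. Relative viability is the nuclei count in treated wells divided by that in vehicle wells. Values are medians of duplicate plates.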

Compound in experiment [1]: CC(C)N(CCCNC(=O)Nc1ccc(C(C)(C)C)cc1)C[C@H]1O[C@@H](n2ccc3c(N)ncnc32)[C@H](O)[C@@H]1O + CS(=O)(=O)CCNCc1ccc(-c2ccc3ncnc(Nc4ccc(OCc5cccc(F)c5)c(Cl)c4)c3c2)o1 [Lapatinib] (partner 2 µM)
In a few lines:
as §1

Compound in experiment [2]: CC(C)N(CCCNC(=O)Nc1ccc(C(C)(C)C)cc1)C[C@H]1O[C@@H](n2ccc3c(N)ncnc32)[C@H](O)[C@@H]1O + NC(=O)Nc1cc(-c2cccc(F)c2)sc1C(=O)N[C@H]1CCCNC1 [AZD7762] (partner 0.2 µM)
A digest of the protocol: as §1

Compound in experiment [3]: CC(C)N(CCCNC(=O)Nc1ccc(C(C)(C)C)cc1)C[C@H]1O[C@@H](n2ccc3c(N)ncnc32)[C@H](O)[C@@H]1O + CCNC(=O)c1noc(-c2cc(C(C)C)c(O)cc2O)c1-c1ccc(CN2CCOCC2)cc1 [Luminespib] (partner 0.01 µM)
A digest of the protocol:
as §1

Regarding HCC-366, the relative viability in the experiment with Shikonin + OSI-027 (first compound 0.01 µM) worked out at 1.07; with Shikonin + OSI-027 (first compound 0.1 µM), 1.27; with Shikonin + OSI-027 (first compound 0.3162 µM) it was 1.14; in the experiment with Shikonin + OSI-027 (first compound 1 µM), 0.859; in experiment [1] (first compound 0.08 µM), 0.987; in experiment [1] (first compound 0.253 µM), 1.07. Also, the relative viability in experiment [1] (first compound 0.8 µM) was determined as 1.02; in experiment [1] (first compound 2.53 µM), 0.981; in experiment [1] (first compound 8 µM), 0.976; in experiment [2] (first compound 0.08 µM), 0.208; in experiment [2] (first compound 0.253 µM), 0.237; in experiment [2] (first compound 0.8 µM) it was 0.277. Further, the values for the relative viability in experiment [2] (first compound 2.53 µM) and in experiment [2] (first compound 8 µM) were 0.104 and 0.249, respectively.
Regarding IA-LM, the relative viability in experiment [1] (first compound 0.08 µM) is 0.959; in experiment [1] (first compound 0.253 µM), 0.801; in experiment [1] (first compound 0.8 µM), 0.733; in experiment [1] (first compound 2.53 µM) it was 0.734; in experiment [1] (first compound 8 µM), 0.681.
Consider LCLC-103H, for which the relative viability in the experiment with Shikonin + OSI-027 (first compound 0.01 µM) worked out at 0.541; in the experiment with Shikonin + OSI-027 (first compound 0.1 µM), 0.54; with Shikonin + OSI-027 (first compound 0.3162 µM), 0.514; in the experiment with Shikonin + OSI-027 (first compound 1 µM), 0.534; in experiment [2] (first compound 0.08 µM), 0.745; in experiment [2] (first compound 0.253 µM), 0.805. Besides, the relative viability in experiment [2] (first compound 0.8 µM) is 0.686; in experiment [2] (first compound 2.53 µM) it was 0.701; in experiment [2] (first compound 8 µM), 0.727; in experiment [3] (first compound 0.08 µM), 0.765; in experiment [3] (first compound 0.253 µM) it was 0.944; in experiment [3] (first compound 0.8 µM) it was 0.883. Further, the relative viability was found to be 0.926 in experiment [3] (first compound 2.53 µM) and 0.93 in experiment [3] (first compound 8 µM).
Take NCI-H441: the relative viability was found to be 0.539 with Shikonin + OSI-027 (first compound 0.01 µM); 0.831 with Shikonin + OSI-027 (first compound 0.1 µM); 0.619 with Shikonin + OSI-027 (first compound 0.3162 µM); 0.624 with Shikonin + OSI-027 (first compound 1 µM); 1.04 in experiment [2] (first compound 0.08 µM); 1.13 in experiment [2] (first compound 0.253 µM). The relative viability in experiment [2] (first compound 2.53 µM) is 1.07; in experiment [2] (first compound 8 µM), 1.33; in experiment [3] (first compound 0.08 µM), 0.39; in experiment [3] (first compound 0.253 µM) it was 0.334; in experiment [3] (first compound 2.53 µM) it was 0.278; in experiment [3] (first compound 8 µM), 0.368.
With NCI-H520, the relative viability with Shikonin + OSI-027 (first compound 0.01 µM) amounted to 0.288; with Shikonin + OSI-027 (first compound 0.1 µM), 0.243; with Shikonin + OSI-027 (first compound 0.3162 µM), 0.209; in the experiment with Shikonin + OSI-027 (first compound 1 µM), 0.304; in experiment [1] (first compound 0.08 µM) it was 0.712; in experiment [1] (first compound 0.253 µM), 0.58. The relative viability in experiment [1] (first compound 0.8 µM) came to 0.655; in experiment [1] (first compound 2.53 µM), 0.845; in experiment [1] (first compound 8 µM), 0.811; in experiment [3] (first compound 0.08 µM), 0.22; in experiment [3] (first compound 0.253 µM) it was 0.219; in experiment [3] (first compound 0.8 µM), 0.239. Further, the relative viability in experiment [3] (first compound 2.53 µM) is 0.221; in experiment [3] (first compound 8 µM), 0.232.
In the case of NCI-H522, the relative viability with Shikonin + OSI-027 (first compound 0.01 µM) was determined as 0.566; with Shikonin + OSI-027 (first compound 0.1 µM) it was 0.729; in the experiment with Shikonin + OSI-027 (first compound 0.3162 µM) it was 0.72; with Shikonin + OSI-027 (first compound 1 µM), 0.809; in experiment [2] (first compound 0.08 µM) it was 0.891; in experiment [2] (first compound 0.253 µM) it was 0.794. The relative viability in experiment [2] (first compound 0.8 µM) was 0.806; in experiment [2] (first compound 2.53 µM), 0.785; in experiment [2] (first compound 8 µM) it was 0.886; in experiment [3] (first compound 0.08 µM) it was 0.949; in experiment [3] (first compound 0.253 µM), 1.2; in experiment [3] (first compound 0.8 µM), 1.05. For the same cell line, the relative viability was 1.1 in experiment [3] (first compound 2.53 µM) and 1.22 in experiment [3] (first compound 8 µM).
Turning to NCI-H661, the relative viability came to 0.685 with Shikonin + OSI-027 (first compound 0.01 µM); 0.774 with Shikonin + OSI-027 (first compound 0.1 µM); 0.782 with Shikonin + OSI-027 (first compound 0.3162 µM); 0.842 in the experiment with Shikonin + OSI-027 (first compound 1 µM); 0.441 in experiment [1] (first compound 0.08 µM); 0.467 in experiment [1] (first compound 0.253 µM). Besides, the relative viability was determined as 0.519 in experiment [1] (first compound 0.8 µM); 0.404 in experiment [1] (first compound 2.53 µM); 0.523 in experiment [1] (first compound 8 µM); 0.936 in experiment [3] (first compound 0.08 µM); 0.966 in experiment [3] (first compound 0.253 µM); 0.947 in experiment [3] (first compound 0.8 µM). In addition, the results for the relative viability in experiment [3] (first compound 2.53 µM) and in experiment [3] (first compound 8 µM) were 0.975 and 0.957, respectively.
In the case of NCI-H1299, the relative viability was found to be 0.984 in experiment [1] (first compound 0.08 µM); 0.948 in experiment [1] (first compound 0.253 µM); 0.914 in experiment [1] (first compound 0.8 µM); 0.919 in experiment [1] (first compound 2.53 µM); 0.891 in experiment [1] (first compound 8 µM).
Turning to NCI-H1563, the relative viability in the experiment with Shikonin + OSI-027 (first compound 0.01 µM) was 0.678; with Shikonin + OSI-027 (first compound 0.1 µM) it was 0.714; with Shikonin + OSI-027 (first compound 0.3162 µM), 0.798; with Shikonin + OSI-027 (first compound 1 µM), 0.769; in experiment [1] (first compound 0.08 µM) it was 0.862; in experiment [1] (first compound 0.253 µM), 0.836. The relative viability in experiment [1] (first compound 0.8 µM) came to 0.742; in experiment [1] (first compound 2.53 µM) it was 1.05; in experiment [1] (first compound 8 µM) it was 0.915; in experiment [3] (first compound 0.08 µM), 0.474; in experiment [3] (first compound 0.253 µM) it was 0.542; in experiment [3] (first compound 0.8 µM), 0.592. The relative viability amounted to 0.533 in experiment [3] (first compound 2.53 µM) and 0.515 in experiment [3] (first compound 8 µM).
Consider NCI-H1648, for which the relative viability in the experiment with Shikonin + OSI-027 (first compound 0.01 µM) was 0.253; in the experiment with Shikonin + OSI-027 (first compound 0.1 µM), 0.285; with Shikonin + OSI-027 (first compound 0.3162 µM) it was 0.285; in the experiment with Shikonin + OSI-027 (first compound 1 µM), 0.26; in experiment [2] (first compound 0.08 µM) it was 0.656; in experiment [2] (first compound 0.253 µM), 0.812. Besides, the relative viability in experiment [2] (first compound 0.8 µM) worked out at 0.525; in experiment [2] (first compound 2.53 µM), 0.645; in experiment [2] (first compound 8 µM), 0.707.
For the cell line NCI-H1650, the relative viability amounted to 0.596 with Shikonin + OSI-027 (first compound 0.01 µM); 0.459 in the experiment with Shikonin + OSI-027 (first compound 0.1 µM); 0.392 with Shikonin + OSI-027 (first compound 0.3162 µM); 0.487 with Shikonin + OSI-027 (first compound 1 µM); 0.753 in experiment [1] (first compound 0.08 µM); 0.584 in experiment [1] (first compound 0.253 µM). The relative viability in experiment [1] (first compound 2.53 µM) was found to be 0.762; in experiment [1] (first compound 8 µM), 0.884; in experiment [3] (first compound 0.08 µM), 0.207; in experiment [3] (first compound 0.253 µM), 0.218; in experiment [3] (first compound 2.53 µM) it was 0.208; in experiment [3] (first compound 8 µM), 0.226.
